Source: US9198433B2, “Substituted benzene fungicides” (E I DU PONT DE NEMOURS AND COMPANY, priority 2007, dated 2015)
Marks after values point to notes of the source that are not given here.

How the values were obtained:
Type in all cases: in vivo
[1] = tested on: Botrytis cinerea; assay: Test F: tomato Botrytis, preventive spray on tomato seedlings, disease rating
Text: (§1) The test compounds were first dissolved in acetone in an amount equal to 3% of the final volume and then suspended at the desired concentration (in ppm) in acetone and purified water (50/50 mix) containing 250 ppm of the surfactant Trem® 014 (polyhydric alcohol esters). The resulting test suspensions were then used in Tests A-L. Spraying a 200 ppm test suspension to the point of run-off on the test plants was the equivalent of an application rate of 500 g/ha. The test suspension was sprayed to the point of run-off on tomato seedlings. […] A dash (-) indicates no test results. All results are for 200 ppm except where followed by an “*”, which indicates 40 ppm or “**”, which indicates 50 ppm.

[2] = tested on: Alternaria solani; assay: Test H: tomato early blight, preventive spray on tomato seedlings, disease rating
Text: as §1

[3] = tested on: Puccinia recondita f. sp. tritici; assay: Test B: wheat leaf rust, preventive spray on wheat seedlings, disease rating; details: 40 ppm (*)
Text: (§2) The test compounds were first dissolved in acetone in an amount equal to 3% of the final volume and then suspended at the desired concentration (in ppm) in acetone and purified water (50/50 mix) containing 250 ppm of the surfactant Trem® 014 (polyhydric alcohol esters). The resulting test suspensions were then used in Tests A-L. Spraying a 200 ppm test suspension to the point of run-off on the test plants was the equivalent of an application rate of 500 g/ha. The test suspension was sprayed to the point of run-off on wheat seedlings. […] A dash (-) indicates no test results. All results are for 200 ppm except where followed by an “*”, which indicates 40 ppm or “**”, which indicates 50 ppm.

[4] = tested on: Septoria nodorum; assay: Test C: wheat glume blotch, preventive spray on wheat seedlings, disease rating
Text: as §2

[5] = tested on: Erysiphe graminis f. sp. tritici; assay: Test A: wheat powdery mildew, preventive spray on wheat seedlings, disease rating; details: 40 ppm (*)
Text: as §2

[6] = tested on: Septoria tritici; assay: Test D: wheat leaf blotch, preventive spray on wheat seedlings, disease rating; details: 40 ppm (*)
Text: The test compounds were first dissolved in acetone in an amount equal to 3% of the final volume and then suspended at the desired concentration (in ppm) in acetone and purified water (50/50 mix) containing 250 ppm of the surfactant Trem® 014 (polyhydric alcohol esters). The resulting test suspensions were then used in Tests A-L. Spraying a 200 ppm test suspension to the point of run-off on the test plants was the equivalent of an application rate of 500 g/ha. The test suspension was sprayed to the point of run-off on wheat seedlings. The following day the seedlings were inoculated with a spore suspension of Septoria tritici (the causal agent of wheat leaf blotch) and incubated in a saturated atmosphere at 24° C. for 48 h, and then moved to a growth chamber at 20° C. for 19 days, after which time disease ratings were made. […] A dash (-) indicates no test results. All results are for 200 ppm except where followed by an “*”, which indicates 40 ppm or “**”, which indicates 50 ppm.

Row | SMILES | Percentage Disease Control, Test F ([1]; 40 ppm (*)) | Percentage Disease Control, Test H ([2]; 40 ppm (*)) | Percentage Disease Control, Test B [3] | Percentage Disease Control, Test C ([4]; 40 ppm (*)) | Percentage Disease Control, Test A [5] | Percentage Disease Control, Test D [6] | Percentage Disease Control, Test F ([1]; 200 ppm) [%] | Percentage Disease Control, Test H ([2]; 200 ppm) [%] | Percentage Disease Control, Test C ([4]; 200 ppm) [%]
1 | COC(=O)NCc1cc(-c2ccn(CC(C)Oc3ccccc3)n2)ccc1Cl (racemic) [Cmpd 61] | 0* % | 0* % | 100* % | 99* % | 84* % | 99* % |  |  | 
2 | COC(=O)NCc1cc(-c2ccn(-c3ccccc3C(F)(F)F)n2)ccc1Cl [Cmpd 51] | 0* % | 60* % | 99* % | 98* % | 97* % | 100* % |  |  | 
3 | COC(=O)NCc1cc(-c2ccn(-c3ccccc3Cl)n2)ccc1Cl [Cmpd 52] |  |  | 100* % | 100* % | 100* % | 100* % | 99 | 92 | 
4 | COC(=O)NCc1cc(-c2ccn(Cc3cc(C(F)(F)F)ccc3Cl)n2)ccc1Cl [Cmpd 53] | 0* % | 92* % | 99* % | 94* % | 98* % | 99* % |  |  | 
5 | COC(=O)NCc1cc(-c2ccn(-c3ccccc3C(C)=O)n2)ccc1Cl [Cmpd 54] | 0* % |  | 100* % | 99* % | 99* % | 99* % |  |  | 
6 | COC(=O)NCc1cc(-c2ccn(Cc3ccc(-c4ccccc4C#N)cc3)n2)ccc1Cl [Cmpd 55] | 0* % | 16* % | 88* % | 92* % | 88* % | 95* % |  |  | 
7 | COC(=O)NCc1cc(-c2ccn(CCC(=O)c3ccc(Cl)cc3)n2)ccc1Cl [Cmpd 56] | 0* % | 92* % | 97* % | 97* % | 89* % | 90* % |  |  | 
8 | COC(=O)NCc1cc(-c2ccn(Cc3ccccc3)n2)ccc1Cl [Cmpd 57] | 0* % | 96* % | 100* % | 87* % | 97* % | 100* % |  |  | 
9 | COC(=O)NCc1cc(-c2ccn(CCc3ccccc3)n2)ccc1Cl [Cmpd 58] | 0* % | 89* % | 100* % | 100* % | 98* % | 99* % |  |  | 
10 | COC(=O)NCc1cc(-c2ccn(CCOc3ccccc3)n2)ccc1Cl [Cmpd 59] | 0* % | 87* % | 100* % | 99* % | 98* % | 97* % |  |  | 
11 | COC(=O)NCc1cc(-c2ccn(Cc3cccc(Cl)c3)n2)ccc1Cl [Cmpd 60] | 0* % | 24* % | 99* % | 99* % | 98* % | 99* % |  |  | 
12 | COC(=O)NCc1cc(-c2ccn(Cc3ccccc3C(F)(F)F)n2)ccc1Cl [Cmpd 62] | 0* % | 0* % | 99* % | 100* % | 99* % | 100* % |  |  | 
13 | COC(=O)NCc1cc(-c2ccn(Cc3ccc(C(F)(F)F)cc3)n2)ccc1Cl [Cmpd 63] | 0* % | 98* % | 100* % | 99* % | 97* % | 100* % |  |  | 
14 | COC(=O)NNc1cc(-c2ccn(-c3cccc(C(F)(F)F)c3)n2)ccc1Cl [Cmpd 64] |  |  | 100* % |  | 99* % | 93* % | 16 | 62 | 99
15 | COC(=O)NCc1cc(-c2ccn(Cc3cccc(OC(F)(F)F)c3)n2)ccc1Cl [Cmpd 65] | 0* % | 8* % | 99* % | 99* % | 99* % | 100* % |  |  | 
16 | COC(=O)NCc1cc(-c2ccn(Cc3ccc(OC(F)(F)F)cc3)n2)ccc1Cl [Cmpd 66] | 0* % | 96* % | 100* % | 100* % | 99* % | 100* % |  |  | 
17 | COC(=O)NCc1cc(-c2ccn(Cc3ccc(Cl)cc3)n2)ccc1Cl [Cmpd 67] | 0* % | 96* % | 99* % | 99* % | 96* % | 100* % |  |  | 
18 | COC(=O)NCc1cc(-c2ccn(-c3cccc(OC(F)(F)F)c3)n2)ccc1Cl [Cmpd 68] |  | 86* % | 100* % | 99* % | 97* % | 100* % | 0 |  | 
19 | COC(=O)NCc1cc(-c2ccn(-c3cccc(C(F)(F)F)n3)n2)ccc1Cl [Cmpd 69] |  |  | 92* % | 98* % | 97* % | 98* % | 0 | 32 | 
20 | COC(=O)NCc1cc(-c2ccn(Cc3ccccc3C)n2)ccc1Cl [Cmpd 70] |  | 96* % | 99* % | 100* % | 99* % | 100* % |  |  | 
21 | COC(=O)NCc1cc(-c2ccn(Cc3cccc(C)c3)n2)ccc1Cl [Cmpd 71] |  | 84* % | 100* % | 100* % | 99* % | 100* % |  |  | 
22 | COC(=O)NCc1cc(-c2ccn(-c3ccc(OC(F)(F)F)cc3)n2)ccc1Cl [Cmpd 77] |  | 96* % | 100* % | 100* % | 99* % | 100* % |  |  | 
23 | COC(=O)NCc1cc(-c2ccn(-c3ccc(C(F)(F)F)cc3)n2)ccc1Cl [Cmpd 79] | 0* % |  | 99* % | 100* % | 99* % | 99* % |  |  | 
24 | COC(=O)NCc1cc(-c2ccn(-c3ccc(-c4ccccc4)cc3)n2)ccc1Cl [Cmpd 82] | 0* % | 7* % | 0* % | 86* % | 60* % |  |  |  | 
25 | CCCCn1nc(-c2ccc(Cl)c(CNC(=O)OC)c2)cc1C(F)(F)F [Cmpd 102] |  |  | 98* % | 96* % | 98* % | 98* % | 0 |  | 
26 | CCCn1nc(-c2ccc(Cl)c(CNC(=O)OC)c2)cc1C(F)(F)F [Cmpd 103] |  |  | 98* % |  | 99* % | 99* % | 0 |  | 87
